In patent US20260217706A1, “HETEROCYCLIC COMPOUNDS, PREPARATION METHOD THEREFOR AND USE THEREOF” (GUANGZHOU YUFAN NANTU BIOTECHNOLOGIES CO., LTD, priority 2023, published 2026):

Biological target: CBL-B protein (Homo sapiens, UniProt Q13191)
Assay: CBL-B binding experiment (Streptavidin-Tb cryptate / Ligand L1 displacement)
Conditions: 8 nM CBL-B protein, 25° C., 60 minutes; Ki=Relative IC50/2
Method: The reaction system mainly includes 1× buffer, 20 mM HEPES pH 7.5, 150 mM NaCl, 0.01% Triton X-100, 0.5 mM TCEP, and 0.1% ug/ml BSA. The compound is continuously diluted with DMSO for 10 concentration points, and 150 nL is transferred to the experimental plate. The experimental reaction begins after adding 8 nM of CBL-B protein and the reaction is carried out at 25° C. for 60 minutes. […] After an additional 60 minutes of incubation at room temperature, the experimental plate is read using an EnVision plate. The luminescence signal values were converted to percentage inhibition rates. Inhibition %=(Sample value−Maximum value)/(Minimum value−Maximum value)×100. The minimum value refers to the measured value in the wells without CBL-B protein but with DMSO and Ligand, while the maximum value refers to the measured value in the wells with DMSO, CBL-B protein, and Ligand. The IC50 values are calculated by XLFit (version 5.3.1.3) in Excel. Equation: Y=Bottom+(Top−Bottom)/(1+(IC50/X)^HillSlope); Ki=Relative IC50/2.

CBL-B protein, sequence (Q13191 whole entry): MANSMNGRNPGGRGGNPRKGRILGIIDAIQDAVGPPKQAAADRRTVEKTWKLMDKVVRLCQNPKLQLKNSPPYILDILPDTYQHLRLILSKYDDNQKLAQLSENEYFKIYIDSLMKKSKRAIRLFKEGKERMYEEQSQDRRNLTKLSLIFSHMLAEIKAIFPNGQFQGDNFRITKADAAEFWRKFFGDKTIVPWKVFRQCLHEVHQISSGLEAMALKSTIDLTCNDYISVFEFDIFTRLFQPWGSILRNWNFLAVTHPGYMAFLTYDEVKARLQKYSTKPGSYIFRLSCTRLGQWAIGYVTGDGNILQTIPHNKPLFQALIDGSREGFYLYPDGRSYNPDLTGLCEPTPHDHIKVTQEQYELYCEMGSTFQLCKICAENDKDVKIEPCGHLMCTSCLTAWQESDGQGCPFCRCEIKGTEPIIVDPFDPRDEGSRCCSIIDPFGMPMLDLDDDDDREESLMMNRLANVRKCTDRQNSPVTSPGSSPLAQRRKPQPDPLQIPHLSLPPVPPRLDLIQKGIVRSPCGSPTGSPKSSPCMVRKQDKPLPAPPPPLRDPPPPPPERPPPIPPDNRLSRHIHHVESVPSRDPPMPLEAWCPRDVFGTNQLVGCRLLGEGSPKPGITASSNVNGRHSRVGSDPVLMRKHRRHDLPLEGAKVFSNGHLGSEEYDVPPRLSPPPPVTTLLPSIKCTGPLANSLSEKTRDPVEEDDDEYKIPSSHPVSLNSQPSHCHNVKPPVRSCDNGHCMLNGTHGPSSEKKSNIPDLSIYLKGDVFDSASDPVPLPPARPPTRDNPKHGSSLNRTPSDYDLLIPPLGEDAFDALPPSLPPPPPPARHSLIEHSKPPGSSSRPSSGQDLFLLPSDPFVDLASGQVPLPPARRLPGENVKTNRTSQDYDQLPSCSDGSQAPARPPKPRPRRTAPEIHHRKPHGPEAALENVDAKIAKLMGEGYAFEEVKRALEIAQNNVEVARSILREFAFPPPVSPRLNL

Ki [nM] | Compound
< 50 | Cn1cnnc1C1(c2cccc(-n3cc(C(F)(F)F)c4cc(CN5CCC(C(F)F)CC5)[nH]c4c3=O)c2)CCC1 [Compound T112, 2-[[4-(difluoromethyl)-1-piperidyl]methyl]-6-[3-[1-(4-methyl-1,2,4-triazol-3-yl)cyclobutyl]phenyl]-4-(trifluoromethyl)-1H-pyrrolo[2,3-c]pyridin-7-one]
50 to 100 | C[C@@H]1CCN(Cc2cc3c(C(F)(F)F)cn(-c4cccc(C5(c6nncn6C)CCC5)c4)c(=O)c3[nH]2)CC1(F)F [Compound T115, (R)-2-((3,3-difluoro-4-methylpiperidin-1-yl)methyl)-6-(3-(1-(4-methyl-4H-1,2,4-triazol-3-yl)cyclobutyl)phenyl)-4-(trifluoromethyl)-1,6-dihydro-7H-pyrrolo[2,3-c]pyridin-7-one]
50 to 100 | C[C@H]1CCN(Cc2cc3c(C(F)(F)F)cn(-c4cccc(C5(c6nncn6C)CCC5)c4)c(=O)c3[nH]2)CC1(F)F [Compound T116, (S)-2-((3,3-difluoro-4-methylpiperidin-1-yl)methyl)-6-(3-(1-(4-methyl-4H-1,2,4-triazol-3-yl)cyclobutyl)phenyl)-4-(trifluoromethyl)-1,6-dihydro-7H-pyrrolo[2,3-c]pyridin-7-one]
< 50 | CCN(CC)Cc1cc2c(C(F)(F)F)cn(-c3cccc([C@]4(c5nncn5C)C[C@@H](OC)C4)c3)c(=O)c2[nH]1 [Compound T117, 2-((diethylamino)methyl)-6-(3-((1s,3s)-3-methoxy-1-(4-methyl-4H-1,2,4-triazol-3-yl)cyclobutyl)phenyl)-4-(trifluoromethyl)-1,6-dihydro-7H-pyrrolo[2,3-c]pyridin-7-one]
< 50 | CCN(CC)Cc1cc2c(C(F)(F)F)cn(-c3cccc([C@]4(c5nncn5C)C[C@H](OC)C4)c3)c(=O)c2[nH]1 [Compound T118, 2-((diethylamino)methyl)-6-(3-((1r,3r)-3-methoxy-1-(4-methyl-4H-1,2,4-triazol-3-yl)cyclobutyl)phenyl)-4-(trifluoromethyl)-1,6-dihydro-7H-pyrrolo[2,3-c]pyridin-7-one]
< 50 | Cn1cnnc1C1(c2cccc(-n3cc(C(F)(F)F)c4cc(CN5CCC[C@]6(CCOC6)C5)[nH]c4c3=O)c2)CCC1 [Compound T123, (S)-2-((2-oxa-7-azaspiro[4.5]decan-7-yl)methyl)-6-(3-(1-(4-methyl-4H-1,2,4-triazol-3-yl)cyclobutyl)phenyl)-4-(trifluoromethyl)-1,6-dihydro-7H-pyrrolo[2,3-c]pyridin-7-one]
100 to 500 | Cn1cnnc1C1(c2cccc(-n3cc(C(F)(F)F)c4cc(CN5CCC[C@@]6(CCOC6)C5)[nH]c4c3=O)c2)CCC1 [Compound T124, (R)-2-((2-oxa-7-azaspiro[4.5]decan-7-yl)methyl)-6-(3-(1-(4-methyl-4H-1,2,4-triazol-3-yl)cyclobutyl)phenyl)-4-(trifluoromethyl)-1,6-dihydro-7H-pyrrolo[2,3-c]pyridin-7-one]
< 50 | Cn1cnnc1C1(c2cccc(-n3cc(C(F)(F)F)c4cc(CN5CCC6(CCOC6)CC5)[nH]c4c3=O)c2)CCC1 [Compound T125, 2-((2-oxa-8-azaspiro[4.5]decan-8-yl)methyl)-6-(3-(1-(4-methyl-4H-1,2,4-triazol-3-yl)cyclobutyl)phenyl)-4-(trifluoromethyl)-1,6-dihydro-7H-pyrrolo[2,3-c]pyridin-7-one]
< 50 | CC1CC(c2cc(C(N)=O)cc(-n3cc(C(F)(F)F)c4cc(CN5CCC[C@H](C)C5)[nH]c4c3=O)c2)(c2nncn2C)C1 (stereo partly drawn) [Compound T127, 3-[3-methyl-1-(4-methyl-1,2,4-triazol-3-yl)cyclobutyl]-5-[2-[[(3S)-3-methyl-1-piperidyl]methyl]-7-oxo-4-(trifluoromethyl)-1H-pyrrolo[2,3-c]pyridin-6-yl]benzamide]
< 50 | CC1CC(c2cc(C(=O)O)cc(-n3cc(C(F)(F)F)c4cc(CN5CCC[C@H](C)C5)[nH]c4c3=O)c2)(c2nncn2C)C1 (stereo partly drawn) [Compound T128, 3-[3-methyl-1-(4-methyl-1,2,4-triazol-3-yl)cyclobutyl]-5-[2-[[(3S)-3-methyl-1-piperidyl]methyl]-7-oxo-4-(trifluoromethyl)-1H-pyrrolo[2,3-c]pyridin-6-yl]benzoic acid]
< 50 | C[C@H]1CCCN(Cc2cc3c(C(F)(F)F)cn(-c4cccc(C5(c6nncn6C)COC5)c4)c(=O)c3[nH]2)C1 [Compound T129, (S)-6-(3-(3-(4-methyl-4H-1,2,4-triazol-3-yl)oxetan-3-yl)phenyl)-2-((3-methylpiperidin-1-yl)methyl)-4-(trifluoromethyl)-1,6-dihydro-7H-pyrrolo[2,3-c]pyridin-7-one]
< 50 | C[C@@H]1CN(Cc2cc3c(C(F)(F)F)cn(-c4cccc([C@]5(c6nncn6C)C[C@@H](C)C5)c4)c(=O)c3[nH]2)CCN1C(=O)OC(C)(C)C [Compound T141, tert-butyl (2R)-2-methyl-4-[[6-[3-[3-methyl-1-(4-methyl-1,2,4-triazol-3-yl)cyclobutyl]phenyl]-7-oxo-4-(trifluoromethyl)-1H-pyrrolo[2,3-c]pyridin-2-yl]methyl]piperazine-1-carboxylate]
< 50 | C[C@@H]1CN(Cc2cc3c(C(F)(F)F)cn(-c4cccc([C@]5(c6nncn6C)C[C@@H](C)C5)c4)c(=O)c3[nH]2)CCN1 [Compound T142, 6-[3-[3-methyl-1-(4-methyl-1,2,4-triazol-3-yl)cyclobutyl]phenyl]-2-[[(3R)-3-methylpiperazin-1-yl]methyl]-4-(trifluoromethyl)-1H-pyrrolo[2,3-c]pyridin-7-one]
< 50 | CO[C@H]1C[C@@](c2cccc(-n3cc(C(F)(F)F)c4cc(CN5CC6CC6C5)[nH]c4c3=O)c2)(c2nncn2C)C1 (stereo partly drawn) [Compound T143, 2-((3-azabicyclo[3.1.0]hexan-3-yl)methyl)-6-(3-((1s,3s)-3-methoxy-1-(4-methyl-4H-1,2,4-triazol-3-yl)cyclobutyl)phenyl)-4-(trifluoromethyl)-1,6-dihydro-7H-pyrrolo[2,3-c]pyridin-7-one]
< 50 | CO[C@H]1C[C@](c2cccc(-n3cc(C(F)(F)F)c4cc(CN5CC6CC6C5)[nH]c4c3=O)c2)(c2nncn2C)C1 (stereo partly drawn) [Compound T144, 2-((3-azabicyclo[3.1.0]hexan-3-yl)methyl)-6-(3-((1r,3r)-3-methoxy-1-(4-methyl-4H-1,2,4-triazol-3-yl)cyclobutyl)phenyl)-4-(trifluoromethyl)-1,6-dihydro-7H-pyrrolo[2,3-c]pyridin-7-one]
< 50 | CO[C@H]1C[C@](c2cccc(-n3cc(C(F)(F)F)c4cc(CN5CC6CCC(C6)C5)[nH]c4c3=O)c2)(c2nncn2C)C1 [Compound T146, 2-((3-azabicyclo[3.2.1]octan-3-yl)methyl)-6-(3-((1r,3r)-3-methoxy-1-(4-methyl-4H-1,2,4-triazol-3-yl)cyclobutyl)phenyl)-4-(trifluoromethyl)-1,6-dihydro-7H-pyrrolo[2,3-c]pyridin-7-one]
< 50 | CO[C@H]1C[C@](c2cccc(-n3cc(C(F)(F)F)c4cc(CN5CCCC6(CC6)C5)[nH]c4c3=O)c2)(c2nncn2C)C1 [Compound T148, 2-((5-azaspiro[2.5]octan-5-yl)methyl)-6-(3-((1r,3r)-3-methoxy-1-(4-methyl-4H-1,2,4-triazol-3-yl)cyclobutyl)phenyl)-4-(trifluoromethyl)-1,6-dihydro-7H-pyrrolo[2,3-c]pyridin-7-one]
< 50 | CCN(Cc1cc2c(C(F)(F)F)cn(-c3cccc([C@]4(c5nncn5C)C[C@H](OC)C4)c3)c(=O)c2[nH]1)CC(C)C [Compound T150, 2-((ethyl(isobutyl)amino)methyl)-6-(3-((1r,3r)-3-methoxy-1-(4-methyl-4H-1,2,4-triazol-3-yl)cyclobutyl)phenyl)-4-(trifluoromethyl)-1,6-dihydro-7H-pyrrolo[2,3-c]pyridin-7-one]
< 50 | CO[C@H]1C[C@@](c2cccc(-n3cc(C(F)(F)F)c4cc(CNCCC5CC5)[nH]c4c3=O)c2)(c2nncn2C)C1 [Compound T153, 2-(((2-cyclopropylethyl)amino)methyl)-6-(3-((1s,3s)-3-methoxy-1-(4-methyl-4H-1,2,4-triazol-3-yl)cyclobutyl)phenyl)-4-(trifluoromethyl)-1,6-dihydro-7H-pyrrolo[2,3-c]pyridin-7-one]
< 50 | CO[C@H]1C[C@@](c2cccc(-n3cc(C(F)(F)F)c4cc(CN5CCCC(C(F)F)C5)[nH]c4c3=O)c2)(c2nncn2C)C1 (stereo partly drawn) [Compound T155, 2-((3-(difluoromethyl)piperidin-1-yl)methyl)-6-(3-((1s,3s)-3-methoxy-1-(4-methyl-4H-1,2,4-triazol-3-yl)cyclobutyl)phenyl)-4-(trifluoromethyl)-1,6-dihydro-7H-pyrrolo[2,3-c]pyridin-7-one]
< 50 | CCN(Cc1cc2c(C(F)(F)F)cn(-c3cccc([C@]4(c5nncn5C)C[C@H](OC)C4)c3)c(=O)c2[nH]1)C(C)C [Compound T193]
